In patent US20100291592A1, “NOVEL MARKER FOR SENSITIVITY AGAINST SULFONAMIDE COMPOUND” (priority 2006, published 2010):

Key:
[1] = tested on: human non-small cell lung cancer cell line (PC9); assay: Anti-tumor effect on subcutaneous transplant model of PC9; assay type: in vivo, nude mouse; conditions: PC9 subcutaneous transplant, 50, 100 or 200 mg/kg orally twice a day for 14 days
Method: Human non-small-cell lung cancer cell line PC9 (obtained from Immuno-Biological laboratories Co., Ltd.), human non-small-cell lung cancer cell line A549 (obtained from Dainippon Pharmaceutical), human colon cancer cell line WiDr (obtained from Dainippon Pharmaceutical) and human colon cancer cell line HCT116 (obtained from ATCC) were cultured in RPMI1640 (containing 10% FBS) in a 5% carbon dioxide incubator at 37° C. to about 80% confluence, and the cells were collected with trypsin-EDTA. Using a phosphate buffer for PC9, WiDr and HCT116 and a 50% matrigel-containing phosphate buffer for A549, 5×10^7 cells/mL suspensions were prepared, respectively. Then, 0.1 mL each of the resulting cell suspensions was subcutaneously transplanted to the side of a nude mouse.
For PC9, 8 days after the transplantation, E7820 was orally administered for 50 mg/kg, 100 mg/kg or 200 mg/kg twice a day for 14 days. For A549, 24 days after the transplantation, E7820 was orally administered for 50 mg/kg or 200 mg/kg twice a day for 7 days. For WiDr, 11 days after the transplantation, E7820 was orally administered for 50 mg/kg, 100 mg/kg or 200 mg/kg twice a day for 14 days. […]
The major and minor axes of tumors were measured with Digimatic caliper (Mitsutoyo), and tumor volumes and relative tumor volumes were calculated according to the following formulae. […]

EGFR1 [2] = assay: EGFR1 expression level in cultured PC9 (flow cytometry); assay type: cell-based, human; conditions: for EGFR1 expression level (% of control) PC9: two days of culture
Method: PC9 or A549 was suspended in RPMI1640 (containing 10% FBS) to 1×10^5 cells/ml. Then, 1 ml each of these suspensions was placed into each well of a 6-well plate and cultured in a 5% carbon dioxide incubator at 37° C. On the following day, 1 ml each of E7820 culture dilutions at respective concentrations (0-20 μM) was added to the cells in each well for further culture. After two days of culture, the cells were collected with trypsin-EDTA according to a routine procedure, which were suspended in PBS containing 0.5% BSA. Subsequently, an anti-EGFR1 antibody (BD Biosciences) was added to these suspensions and incubated at 4° C. for 30 minutes. Centrifugation and washing with PBS were carried out according to routine procedures to remove an excessive amount of the antibody. Then, an RPE-labeled anti-mouse IgG antibody was added to these suspensions and incubated at 4° C. for 30 minutes. Centrifugation and washing with PBS were carried out according to routine procedures to remove an excessive amount of the antibody. Finally, the EGFR1 expression level in PC9 and A549 were determined with FACSCalibur (Japan Becton, Dickinson and Company).

EGFR1 [3] = assay: EGFR1 expression level in PC9 subcutaneous transplant model (immunohistochemical staining); assay type: in vivo; conditions: PC9 tumors in nude mice, 25, 50, 100 or 200 mg/kg orally twice a day for 7 days, versus unadministered group
Method: PC9 was cultured in RPMI1640 (containing 10% FBS) in a 5% carbon dioxide incubator at 37° C. The cultured human tumor cells (PC9) (8×10^6 cells/mouse) were subcutaneously transplanted into nude mice (KSN mice from SLC). Once proliferation of the tumors transplanted into the mice was observed, E7820 was orally administered to the mice for 0 mg/kg (unadministered), 25 mg/kg, 50 mg/kg, 100 mg/kg or 200 mg/kg twice a day for 7 days. Following 7 days of administration, tumor tissues were removed from the mice, fixed with formalin and embedded in paraffin. Subsequently, the paraffin-embedded tumor tissues were sliced into a thickness of 6 μm, placed on glass slides and deparaffinized with xylene/ethanol. Then, these sections were treated with […] (Roche), and subjected to immunostaining according to the protocol of Simple Stain kit: mouse MAX-PO (M) (NICHIREI) using an anti-EGFR antibody (DakoCytomation). Referring to FIG. 5, (a) to (f) show stain with control IgG (negative control), E7820-unadministered group, E7820-administered group (25 mg/kg), E7820-administered group (50 mg/kg), E7820-administered group (100 mg/kg) and E7820-administered group (200 mg/kg), respectively. Each panel was enlarged twenty times. […] This proves that E7820 also exerts an anti-tumor effect at tissue level by decreasing the EGFR1 expression level. […]

[4] = tested on: cancer cell line resistant to E7070; conditions: WO2006/030941 and WO2006/030947; cited from earlier work

## Cc1ccc(NS(=O)(=O)c2cccc(C#N)c2)c2[nH]cc(C#N)c12 [E7820, N-(3-cyano-4-methyl-1H-indole-7-yl)-3-cyanobenzenesulfonamide]
[1]
  Anti-tumor effect (relative tumor volume): stronger anti-tumor effects
EGFR1 [2]; PC9, E7820 0.01 μM
  EGFR1 expression level (% of control) PC9: 95 % of control
EGFR1 [2]; PC9, E7820 0.03 μM
  EGFR1 expression level (% of control) PC9: 91 % of control
EGFR1 [2]; PC9, E7820 0.1 μM
  EGFR1 expression level (% of control) PC9: 80 % of control
EGFR1 [2]; PC9, E7820 0.3 μM
  EGFR1 expression level (% of control) PC9: 65 % of control
EGFR1 [2]; PC9, E7820 1 μM
  EGFR1 expression level (% of control) PC9: 49 % of control
EGFR1 [2]; PC9, E7820 3 μM
  EGFR1 expression level (% of control) PC9: 44 % of control
EGFR1 [2]; PC9, E7820 10 μM
  EGFR1 expression level (% of control) PC9: 37 % of control
EGFR1 [2]; cultured PC9, dose-dependent
  Effect on EGFR1 expression level (in words): greatly decreased the EGFR1 expression level
EGFR1 [3]
  Effect on EGFR1 expression level (immunohistochemical staining, in words): decrease in the EGFR1 expression level was significant
[4]
  Cross-resistance of E7070-resistant cancer cell line (antiproliferative activity): cross-resistance
